Measurements published in publication PMC4131461, “Antiviral Action of Synthetic Stigmasterol Derivatives on Herpes Simplex Virus Replication in Nervous Cells In Vitro” (BioMed Research International, 2014).

Legend:
[1] = MTT cytotoxicity assay in SH-SY5Y cells; type: cell-based; settings: human, SH-SY5Y cells (confluent nongrowing monolayers), 24 h incubation at 37°C
Procedure: (§1) Cell viability in the presence of different concentration of the compound was determined using the MTT assay. The absorbance of each well was measured on Eurogenetics MPR-A 4i microplate reader using a test wavelength of 570 nm and a reference wavelength of 630 nm. The CC50 was defined as the concentration of the compound that caused a 50% reduction in absorbance.
(§2) Fifty percent cytotoxic concentration (CC50) for PC-12, Neuro-2a, and SH-SY5Y cells was determined. Compounds 1 and 2 were added to confluent nongrowing cells in concentrations ranging from 1 to 144 μM and from 1 to 129 μM, respectively, and, after 24 h incubation at 37°C, a MTT colorimetric assay was performed.
(§3) Figure 2 Cytotoxic effect of compounds 1 and 2 in three nervous cell lines. (a) PC-12, (b) Neuro-2a, and (c) SH-SY5Y cells monolayers were incubated in the presence of different concentrations of compounds 1 and 2. After 24 h of incubation at 37°C cell viability was determined by the MTT assay. The CC50 was defined as the concentration of the compound that caused a 50% reduction in cell viability. Data are mean values from four separate experiments.

[2] = MTT cytotoxicity assay in Neuro-2a cells; type: cell-based, Murine; settings: mouse, Neuro-2a cells (confluent nongrowing monolayers), 24 h incubation at 37°C
Procedure: as §1, §2, §3

[3] = MTT cytotoxicity assay in PC-12 cells; type: cell-based; settings: rat, PC-12 cells (confluent nongrowing monolayers), 24 h incubation at 37°C
Procedure: as §1, §2, §3

HSV-1 KOS wt strain = assay: HSV-1 KOS wt virus yield reduction in nervous cell lines (plaque assay); type: cell-based, herpes simplex virus type 1; settings: SH-SY5Y cells, m.o.i. 1, 5 μM compound 2, 24 h
Procedure: (§4) Cells grown in 24-well plates were infected with HSV-1 KOS and, after virus adsorption, treated or not with the compounds. After 24 h of incubation at 37°C, supernatants were collected and titrated in Vero cells. Briefly, Vero cells grown in 24-well plates were infected with serial 10-fold dilutions of viral yields and incubated for 1 h at 37°C. Residual inocula were replaced by maintenance medium with 0.7% of methylcellulose. After 72 h of incubation at 37°C, cells were fixed with formaldehyde 10% and stained with Crystal Violet, and plaque forming units were counted.
Neuro-2a, PC-12, and SH-SY5Y cells grown in 24-well plates were infected with HSV-1 KOS wt strain at m.o.i. of 1. After 24 h of incubation at 37°C, supernatants were collected and titrated in Vero cells.
(§5) Figure 3 Effect of compounds 1 and 2 on HSV-1 virus yield reduction. (a) PC-12, (b) Neuro-2a, and (c) SH-SY5Y cells were infected with HSV-1 KOS (black bars) and HSV-1 Cgal (grey bars) and incubated for 1 h at 37°C. Then, cells were covered with DMEM/F12 2% or media containing 10 μM of compound 1 and 5 μM of compound 2. After 24 h supernatants were harvested and viral titres were determined by plaque assay. Bars show average of two replicates ± SD. *P < 0.05, with respect to untreated infected cells.

HSV-1 Cgal [4] = assay: HSV-1 Cgal virus yield reduction in nervous cell lines (plaque assay); type: cell-based, herpes simplex virus type 1; settings: regardless of the virus strain used (KOS wt or Cgal); PC-12, Neuro-2a, SH-SY5Y cells; 10 μM compound 1 / 5 μM compound 2, 24 h
Procedure: as §4
(§6) Cells grown in coverslips inside 24-well plates were infected with HSV-1 Cgal. After adsorption, inocula were eliminated and cells were covered with MEM 1.5%. At 24 h after infection (p.i.), supernatants were harvested and stored at −70°C for titration, and cells were stained in situ for β-gal. Coverslips were mounted, observed with an Olympus BX61 microscope, and photographed.
as §5, with “Bars show average of two replicates ± SD. *P < 0.05, with respect to untreated infected cells.” left out

HSV-1 Cgal [5] = assay: HSV-1 Cgal propagation, in situ beta-gal staining; type: cell-based, herpes simplex virus type 1; settings: PC-12, Neuro-2a, SH-SY5Y cells, m.o.i. 1, 10 μM of 1 / 5 μM of 2, 24 h
Procedure: as §6
We have previously reported that compounds 1 and 2 inhibit HSV-1 propagation in IOBA-NHC cells. To investigate the effect of both compounds on viral propagation, PC-12, Neuro-2a, and SH-SY5Y cells grown in coverslips inside 24-well plates were infected with HSV-1 Cgal (m.o.i. = 1) and, then, treated with control media, 10 μM of 1 and 5 μM of 2. After 24 h incubation at 37°C, cells were stained in situ for β-gal. […] Therefore, both compounds would prevent HSV-1 Cgal spreading in all nervous cell lines assayed when added after infection.
Figure 4 Effect of compounds 1 and 2 on HSV-1 propagation. (a) PC-12, (b) Neuro-2a, and (c) SH-SY5Y cells monolayers grown in coverslips inside 24-well plates were infected with HSV-1 Cgal and incubated for 1 h at 37°C. Then, cells were covered with DMEM/F12 2% or media containing 10 μM of compound 1 and 5 μM of compound 2. After incubation for 24 h, cells were stained in situ for β-gal. […]

IL-6 [6] = assay: IL-6 secretion in HSV-1-infected Neuro-2a cells (ELISA); type: cell-based, Murine; settings: HSV-1 KOS-infected Neuro-2a cells, 10 μM compound 1 / 5 μM compound 2, 24 h; for IL-6 levels, reduction: vs untreated infected cells; for IL-6 levels: infected control 659.6 ± 14.8
Procedure: (§7) Neuro-2a cells grown in 24-well plates were infected with HSV-1 at a multiplicity of infection (m.o.i.) of 1. After 24 h of incubation at 37°C cells supernatants were harvested and cytokines were quantified. Murine IL-6 and IFN-gamma were quantified by commercial ELISA sets (BD OptEIATM, Becton Dickinson, USA) according to manufacturer instructions.
(§8) On the other hand, compound 2 increases IL-6 levels in human epithelial cells infected with HSV-1 [12]. […] For that purpose, we used those supernatants in which the antiviral effect of compounds 1 and 2 was found (Figure 3(b)). IL-6 and IFN-γ secretion reached 659.6 ± 14.8 pg/mL and 154.7 ± 7.2 pg/mL in HSV-1 infected control cells, respectively. […] IFN-γ levels dropped to 72.3 ± 4.9 pg/mL (P < 0.006) (53.3%) and to 53 ± 4.2 pg/mL (P < 0.001) (65.7%) with respect to untreated infected cells after treatment with 1 and 2. Thus, compounds 1 and 2 might display an anti-inflammatory activity in HSV-1-infected Neuro-2a cells.

IFN-γ = assay: IFN-gamma secretion in HSV-1-infected Neuro-2a cells (ELISA); type: cell-based, Murine; settings: HSV-1 KOS-infected Neuro-2a cells, 10 μM compound 1 / 5 μM compound 2, 24 h; for IFN-γ levels: infected control 154.7 ± 7.2
Procedure: as §7, §8

TNF-α = system: TNF-α; set-up: method as in earlier work; settings: compound 1: HSV-1-infected epithelial cells; compound 2: IOBA-NHC cells; Michelini, personal communication; cited from earlier work
IL-6 [7] = system: IL-6; set-up: method as in earlier work; settings: HSV-1-infected epithelial cells (IOBA-NHC and HCLE); Michelini, personal communication; cited from earlier work
[8] = system: glucocorticoid receptors (GR); set-up: method as in Michelini, personal communication; settings: ref Michelini, personal communication; cited from earlier work
[9] = system: glucocorticoid receptors (GR); set-up: method as in Michelini, personal communication; settings: ref Michelini, personal communication; cited from earlier work; remark: listed apart in the source
IOBA-NHC cells = settings: cited from earlier work

SMILES	CC50 at 24 h [1] [µM]	CC50 at 24 h [2] [µM]	CC50 at 24 h [3] [µM]	inhibition of HSV-1 yield (HSV-1 KOS wt strain) [logs]	reduction in viral yields (HSV-1 Cgal [4])	HSV-1 Cgal propagation (β-gal stained cells) (HSV-1 Cgal [5])	IL-6 levels, reduction (IL-6 [6]) [%]	IL-6 levels (IL-6 [6]) [pg/mL]	IFN-γ levels, drop with respect to untreated infected cells (IFN-γ) [%]	IFN-γ levels (IFN-γ) [pg/mL]	effect on TNF-α levels (TNF-α)	effect on IL-6 levels (IL-6 [7])	binding to glucocorticoid receptors (GR) [8]	induction of glucocorticoid activity via GR activation [9]	CC50 (IOBA-NHC cells) [µM]
CC[C@@H](C(C)C)[C@H](O)[C@@H](O)[C@@H](C)[C@H]1CC[C@H]2[C@@H]3CC(=O)[C@@]4(O)C[C@@H](Br)CC[C@]4(C)[C@H]3CC[C@]12C [Compound 2, (22S,23S)-3β-bromo-5α,22,23-trihydroxystigmastan-6-one]	70	65.2	> 129	~2	1-2 log	only scattered stained cells	41.1	388.2 ± 11.4	65.7	53 ± 4.2	inhibits	increases	none of them was able to bind	none of them was able to	> 277
CC[C@@H](C(C)C)[C@H](O)[C@@H](O)[C@@H](C)[C@H]1CC[C@H]2[C@@H]3CCC4=CC(=O)CC[C@]4(C)[C@H]3CC[C@]12C [Compound 1, (22S,23S)-22,23-dihydroxystigmast-4-en-3-one]	77.2	80.4	> 144	–	1-2 log	only scattered stained cells	46.2	355.4 ± 10.9	53.3	72.3 ± 4.9	does not reduce	does not reduce	none of them was able to bind	none of them was able to	71.2
